The values below come from patent US20240398844A1, “PHENYLCOUMARINS FOR TREATING INFLAMMATION” (Ohio State Innovation Foundation, priority 2021, published 2024).

Data set [1] is described as follows: Solubility in NMR solvents. It is filed as physicochemical. The note with it: CD3OD. As to the method: Solubility of the fractions was a challenge, and chloroform-d (CDCl3), […], methanol-d4 (CD3OD), dimethyl sulfoxide-d6, and water-d2 (D2O) (Cambridge Isotope Laboratories, Tewksbury, MA, USA) were all tried as solvents. […] Since there was only 1.5 mg of material, further purification and structure elucidation were not pursued.
Fraction 3 was most soluble in D2O, and at approximately 11 mg/mL, ^1H and ^13C NMR data were obtained in an effort to confirm the presence of an isopropyl ether derivative (40). However, solubility of fraction 3 continued to be problematic even in D2O. Further acquisition attempts with increased probe temperature (310 K) were no more successful at keeping the compound (40) in solution.

The subject of data set [2] is PPAR-γ. Description: Diabetic zebrafish Western blot, PPAR-γ expression. The note with it: for PPAR-γ expression, dose dependence: diabetic zebrafish, 10, 5, and 1 μM. Type of data set: in vivo. As to the method:
(§1) Alloxan-induced diabetic zebrafish were treated with compounds for immunoblot to validate the newly developed animal model, determine the antidiabetic potential of natural product leads, evaluate glucose metabolism, and discover possible mechanisms of action.
(§2) At 72 hpf, naturally dechorionated zebrafish were sorted into a 24-well microplate with 10 fish per well. Type 2 diabetes was induced with the diabetogenic agent alloxan at a dose of 0.5 mg/mL in system water for 3 hours. The incubation solution was changed to 0.01% DMSO in system water with compounds at concentrations of 20 μg/mL or 10 PM, respectively. After 3 hours of treatment with natural product samples, 10 mg/mL D-glucose was administered in system water for 30 minutes, followed by 1 hour in fresh system water to metabolize the glucose and natural product leads. Upon completion of the 4-phase treatment cycle, zebrafish treatment groups were snap frozen into individual microcentrifuge tubes on dry ice, stored overnight at −80° C., thawed, homogenized with 2 μL PBS per animal, and centrifuged at 4° C. for 1 hour at 17,000 rpm. Protein content of homogenate supernatant was determined using the Pierce BCA Protein Assay kit (Pierce Biotechnology) and bovine serum albumin (BSA) standard curve. Absorbance of protein solutions from zebrafish homogenates and serial dilutions of the BSA standard were measured at 544 nm, using a FLUOstar Optima plate reader (BMG Labtechnologies GmbH, Inc.). Homogenates were analyzed by Western blot. Equal amounts of protein (20 μg) were combined with 4× lithium dodecyl sulphate (LDS) loading buffer (NuPAGE, Life Technologies, Carlsbad, CA, USA), brought to volume (15 μL) with PBS, and heated to 95° C. for 5 minutes. Proteins were resolved using NuPAGE Bis-Tris 4-12% gradient sodium dodecyl sulfate polyacrylamide gel electrophoresis (SDS-PAGE) gels together with SeeBlue Plus2 Pre-Stained Standard Ladder (Life Technologies).
Electrophoresis was performed using NuPAGE MES SDS Running Buffer and XCell SureLock Mini-Cell Electrophoresis System (Life Technologies). Separated proteins were transferred from the gel to a polyvinylidene fluoride (PVDF) membrane using tris buffered saline with Tween-20 (TBST) buffer. The blots were blocked in 3% BSA in TBST and subsequently probed using primary antibodies (1:1000 in 1% BSA in TBST) against each target overnight (Table 1). The secondary, horseradish peroxidase (HRP) conjugated antibodies (1:2000) were obtained from Santa Cruz Biotechnology Inc., (Santa Cruz, CA, USA). Conjugated antibodies were detected using SuperSignal West Femto chemiluminescent substrate from Pierce Biotechnology. […] Band density was quantified for proteins of interest using ImageJ Gel Analysis. […]

The subject of data set [3] is NFκB p65. Description: Diabetic zebrafish Western blot, NFκB expression. Type of data set: in vivo. Conditions: for NFκB p65 expression (Western blot band density): diabetic zebrafish, 10, 5, and 1 μM (rosiglitazone 10 μM), FIG. 10. As to the method:
as §1
as §2, with “The incubation solution was changed to 0.01% DMSO in system water with compounds at concentrations of 20 μg/mL or 10 PM, respectively.” left out
(§3) Electrophoresis was performed using NuPAGE MES SDS Running Buffer and XCell SureLock Mini-Cell Electrophoresis System (Life Technologies). Separated proteins were transferred from the gel to a polyvinylidene fluoride (PVDF) membrane using tris buffered saline with Tween-20 (TBST) buffer. The blots were blocked in 3% BSA in TBST and subsequently probed using primary antibodies (1:1000 in 1% BSA in TBST) against each target overnight (Table 1). The secondary, horseradish peroxidase (HRP) conjugated antibodies (1:2000) were obtained from Santa Cruz Biotechnology Inc., (Santa Cruz, CA, USA). Conjugated antibodies were detected using SuperSignal West Femto chemiluminescent substrate from Pierce Biotechnology. Western blots were visualized, and images captured using a luminometer and LumiAnalyst 3.0 software (Boehringer-Mannheim, Mannheim, Germany). Band density was quantified for proteins of interest using ImageJ Gel Analysis.
(§4) In the case of duplicate blots, the band density results were expressed in bar graphs as the mean±standard error of the mean (SEM) of two independent experiments. Due to the labor- and time-intensive aspect of Western blot analysis with multiple target proteins, a maximum of two independent immunoblot experiments were performed per compared sample set. […] Additionally, treatment groups were also evaluated versus the diabetic, untreated control group for significance by Student's f-test and indicated in the bar graphs with p values represented by *p<0.05, **p<0.01, and ***p<0.001. […]

In data set [4] the test system is HbA1C. Put plainly: Diabetic zebrafish Western blot, HbA1C expression. It is filed as in vivo. As to the method:
as §1
as §2, with “The incubation solution was changed to 0.01% DMSO in system water with compounds at concentrations of 20 μg/mL or 10 PM, respectively.” left out
as §3, §4
In general terms: Immunoblotting shows a protein as a band on a membrane.

The subject of data set [5] is GLUT-4. Put plainly: Diabetic zebrafish Western blot, GLUT-4 expression. Type of data set: in vivo. The note with it: 10 μM, FIG. 5. As to the method: as §1
as §2, with “Proteins were resolved using NuPAGE Bis-Tris 4-12% gradient sodium dodecyl sulfate polyacrylamide gel electrophoresis (SDS-PAGE) gels together with SeeBlue Plus2 Pre-Stained Standard Ladder (Life Technologies).” left out
Electrophoresis was performed using NuPAGE MES SDS Running Buffer and XCell SureLock Mini-Cell Electrophoresis System (Life Technologies). […] Conjugated antibodies were detected using SuperSignal West Femto chemiluminescent substrate from Pierce Biotechnology. […] Band density was quantified for proteins of interest using ImageJ Gel Analysis. […]

Setting [6] is: diabetic zebrafish, 10, 5, and 1 μM (rosiglitazone 10 μM), duplicate blots, FIG. 7.

“Also recorded” adds a separate entry of the source.

Take `COc1cc(O[C@@H]2OCC(O)(CO[C@@H]3OC(CO)[C@@H](O)C(O)C3O)C2O)c2c(-c3ccc(OC(C)C)c(O)c3)cc(=O)oc2c1` (single isomer, unassigned) [Compound 40]: the “solubility (relative)” value in data set [1] is on record as “even less soluble than 24”. In data set [2] (FIG. 9), the “PPAR-γ expression, dose dependence” value was “dose-dependent activation of PPAR-γ; also recorded: not as effective as 24”. In addition, the “NFκB p65 expression (Western blot band density)” value in data set [3] is “significantly inhibit NFκB expression versus the untreated, diabetic control”. For the same compound, the “HbA1C expression (Western blot band density)” value in data set [4] (setting [6]) was “lacking a dose-dependent response”.
`COc1cc(O[C@@H]2O[C@H](CO[C@@H]3OCC(O)(CO)[C@H]3O)[C@@H](O)[C@H](O)[C@H]2O)c2c(-c3ccc(O)c(O)c3)cc(=O)oc2c1` (stereo partly drawn) [Compound 24, 5-O-[β-D-apiofuranosyl-(1→6)-β-D-glucopyranosyl]-7-methoxy-3′,4′-dihydroxy-4-phenylcoumarin]: the “PPAR-γ expression (Western blot band density)” value in data set [2] (diabetic zebrafish, 10 μM, library screen, FIG. 3 / FIG. 11) was “greater PPAR-7 expression than the PPAR-γ positive control; also recorded: greatest PPAR-γ activation surpassing even the positive control thiazolidinedione”. Also, the “PPAR-γ expression, dose dependence” value in data set [2] (FIG. 9) was “dose-dependent activation of PPAR-γ”. For the same compound, in data set [2] (diabetic zebrafish, same concentration (10 μM), FIG. 9), the “PPAR-γ expression versus rosiglitazone” value is on record as “greater PPAR-γ expression than the FDA-approved PPAR-γ agonist”. In addition, in data set [3] (diabetic zebrafish, 10 μM, FIG. 5), the “NFκB expression (Western blot)” value is reported as “excellent inhibition of NFκB expression”. Moreover, the “NFκB p65 expression (Western blot band density)” value in data set [3] is “opposite dose-dependent effect”. In addition, the “GLUT-4 expression (Western blot)” value in data set [5] was “strong GLUT-4 expression”. Also, the “HbA1C expression (Western blot band density)” value in data set [4] (diabetic zebrafish, 10 μM, library screen, FIG. 2 / FIG. 11) was “most effective in reducing glycated hemoglobin”; in data set [4] (setting [6]) it was “reduced glycated hemoglobin levels in comparison to rosiglitazone”.
